Holding throughout (experiment): relative viability (nuclei count vs DMSO), 5 days (fraction); higher = more cells survive
Compound in the experiment “Dasatinib + Luminespib”: Cc1nc(Nc2ncc(C(=O)Nc3c(C)cccc3Cl)s2)cc(N2CCN(CCO)CC2)n1 [Dasatinib] + CCNC(=O)c1noc(-c2cc(C(C)C)c(O)cc2O)c1-c1ccc(CN2CCOCC2)cc1 [Luminespib] (partner 0.01 µM)
The method in brief: (§1)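 Nuclei were stained with Hoechst during a one-step fixation (final 0.05% Triton X-100, 1% formaldehyde, 1 ug/ml Hoechst) carried out 5 days after dosing, then counted on 4× images. The cells, lung cancer lines in 1536-well plates, had been dosed by pin tool the day after seeding with one drug alone or a fixed anchor-drug dose plus five library-drug doses (not always all listed) in √10 steps. Relative viability is the nuclei count in treated wells divided by that in vehicle wells, and each value is the median of duplicate plates.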

Compound in the experiment “Dasatinib + Tozasertib”: Cc1nc(Nc2ncc(C(=O)Nc3c(C)cccc3Cl)s2)cc(N2CCN(CCO)CC2)n1 [Dasatinib] + Cc1cc(Nc2cc(N3CCN(C)CC3)nc(Sc3ccc(NC(=O)C4CC4)cc3)n2)n[nH]1 [Tozasertib] (partner 0.1 µM)
Put shortly:
as §1

Compound in the experiment “Dasatinib + Decitabine”: Cc1nc(Nc2ncc(C(=O)Nc3c(C)cccc3Cl)s2)cc(N2CCN(CCO)CC2)n1 [Dasatinib] + Nc1ncn([C@H]2C[C@H](O)[C@@H](CO)O2)c(=O)n1 [Decitabine] (partner 2 µM)
The method in brief: as §1

Compound in the experiment “XMD13-2 + Bortezomib”: C1CC1C(=O)NC2=NNC3=C2C=CC(=C3)C4=CC(=CC=C4)C(=O)NC5CC5 [XMD13-2] + CC(C)C[C@H](NC(=O)[C@H](Cc1ccccc1)NC(=O)c1cnccn1)B(O)O [Bortezomib] (partner 0.002 µM)
Put shortly:
as §1

This passage reports relative viability results from the supplement of paper PMC10307832.

In the case of UMC-11, the relative viability amounted to 0.874 in the experiment with Dasatinib + Luminespib (first compound 0.005 µM); 0.78 with Dasatinib + Luminespib (first compound 0.01581 µM); 0.607 with Dasatinib + Luminespib (first compound 0.05 µM); 0.316 with Dasatinib + Luminespib (first compound 0.1581 µM); 0.328 with Dasatinib + Luminespib (first compound 0.5 µM); 0.196 with Dasatinib + Tozasertib (first compound 0.005 µM). Besides, the relative viability in the experiment with Dasatinib + Tozasertib (first compound 0.01581 µM) was 0.203; with Dasatinib + Tozasertib (first compound 0.05 µM), 0.193; with Dasatinib + Tozasertib (first compound 0.1581 µM) it was 0.184; with Dasatinib + Tozasertib (first compound 0.5 µM) it was 0.172; with Dasatinib + Decitabine (first compound 0.005 µM), 0.58; with Dasatinib + Decitabine (first compound 0.01581 µM), 0.595. Besides, the relative viability with Dasatinib + Decitabine (first compound 0.05 µM) came out at 0.532; with Dasatinib + Decitabine (first compound 0.1581 µM) it was 0.292; with Dasatinib + Decitabine (first compound 0.5 µM), 0.246; in the experiment with XMD13-2 + Bortezomib (first compound 0.05 µM), 0.737; in the experiment with XMD13-2 + Bortezomib (first compound 0.1581 µM), 0.896; with XMD13-2 + Bortezomib (first compound 0.5 µM), 0.825. Moreover, the figures for the relative viability with XMD13-2 + Bortezomib (first compound 1.581 µM) and in the experiment with XMD13-2 + Bortezomib (first compound 5 µM) were 0.587 and 0.981, respectively.
